The record followed here is ChEMBL document CHEMBL1127149, “The squalestatins: potent inhibitors of squalene synthase. The role of the tricarboxylic acid moiety” (Bioorg Med Chem Lett, 1993).

Bounds are passed on as bounds.

One may read the IC50 as the point on the concentration scale where inhibition reaches its midpoint. A high value points to weaker potency.

One test is filed under the species Rattus norvegicus. As to the kind of experiment: Inhibitory activity of compound was measured against cholesterol biosynthesis from [14C]- acetate by isolated rat hepatocytes. The note with it: Hepatocyte. Format: functional.
`C=C(CC[C@]12O[C@H](C(=O)O)[C@@](O)(C(=O)O)[C@](C(=O)O)(O1)[C@H](OC(=O)/C=C/[C@@H](C)C[C@@H](C)CC)[C@H]2O)[C@@H](OC(C)=O)[C@H](C)Cc1ccccc1` [ZARAGOZIC ACIDS A] yielded an IC50 of 39 nM.

A further test addresses T1, Squalene synthase (Rattus norvegicus, UniProt Q02769).
T1 sequence (Q02769 whole entry): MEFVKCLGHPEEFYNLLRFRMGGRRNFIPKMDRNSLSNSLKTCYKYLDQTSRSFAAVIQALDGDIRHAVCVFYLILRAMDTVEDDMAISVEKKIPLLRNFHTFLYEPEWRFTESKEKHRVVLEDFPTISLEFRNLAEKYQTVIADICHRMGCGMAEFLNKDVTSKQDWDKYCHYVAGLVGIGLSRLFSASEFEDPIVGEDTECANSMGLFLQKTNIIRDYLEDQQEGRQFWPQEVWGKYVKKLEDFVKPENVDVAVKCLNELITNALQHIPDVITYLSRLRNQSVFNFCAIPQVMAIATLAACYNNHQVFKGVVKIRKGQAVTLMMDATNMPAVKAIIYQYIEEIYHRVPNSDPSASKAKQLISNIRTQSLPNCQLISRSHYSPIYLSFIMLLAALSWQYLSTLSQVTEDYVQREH
As to the kind of experiment: In vitro inhibitory activity measured against rat squalene synthase(SQS) enzyme.
Conditions: not given
Compound `C=C(CC[C@]12O[C@H](C(=O)O)[C@@](O)(C(=O)OC)[C@](C(=O)O)(O1)[C@H](O)[C@H]2O)[C@@H](OC(C)=O)[C@H](C)Cc1ccccc1` returned an IC50 of 355 nM.
Consider `C=C(CC[C@]12O[C@H](C(=O)O)[C@@](O)(C(=O)O)[C@](C(=O)OC)(O1)[C@H](OC(=O)/C=C/[C@@H](C)C[C@@H](C)CC)[C@H]2O)[C@@H](OC(C)=O)[C@H](C)Cc1ccccc1`, for which the IC50 was greater than 500 nM.
On the same count and under the same terms, then `C=C(CC[C@]12O[C@H](C(=O)O)[C@@](O)(C(=O)OC)[C@](C(=O)OC)(O1)[C@H](OC(=O)/C=C/[C@@H](C)C[C@@H](C)CC)[C@H]2O)[C@@H](OC(C)=O)[C@H](C)Cc1ccccc1`, with greater than 500 nM; and `C=C(CC[C@]12O[C@H](C(=O)OC)[C@@](O)(C(=O)OC)[C@](C(=O)O)(O1)[C@H](OC(=O)/C=C/[C@@H](C)C[C@@H](C)CC)[C@H]2O)[C@@H](OC(C)=O)[C@H](C)Cc1ccccc1`, with 134 nM.
As to `C=C(CC[C@]12O[C@H](C(=O)OC)[C@@](O)(C(=O)O)[C@](C(=O)O)(O1)[C@H](O)[C@H]2O)[C@@H](OC(C)=O)[C@H](C)Cc1ccccc1`, the midpoint of inhibition, the IC50, lay at 220 nM.
On the same count and under the same terms, then `C=C(CC[C@]12O[C@H](C(=O)OC)[C@@](O)(C(=O)OC)[C@](C(=O)OC)(O1)[C@H](OC(=O)/C=C/[C@@H](C)C[C@@H](C)CC)[C@H]2O)[C@@H](OC(C)=O)[C@H](C)Cc1ccccc1`, with greater than 500 nM; and `C=C(CC[C@]12O[C@H](C(=O)OC)[C@@](O)(C(=O)O)[C@](C(=O)OC)(O1)[C@H](OC(=O)/C=C/[C@@H](C)C[C@@H](C)CC)[C@H]2O)[C@@H](OC(C)=O)[C@H](C)Cc1ccccc1`, with greater than 500 nM.
`C=C(CC[C@]12O[C@H](C(=O)O)[C@@](O)(C(=O)O)[C@](C(=O)OC)(O1)[C@H](O)[C@H]2O)[C@@H](OC(C)=O)[C@H](C)Cc1ccccc1`: the IC50 is greater than 500 nM.
